Measured values from US20100261711A1, “SELECTIVE ANTICONVULSANT AGENTS AND THEIR USES” (WiSys Technology Foundation, priority 2009, published 2010).
Read-outs that look alike come from different tables or passages of the source.

Tests used:
[1] = system: MES-induced seizures; conditions: Mice IP; from Antiepileptic Drugs, 5th ed., Levy et al., 2002; cited from earlier work
[2] = system: Metrazol-induced clonic seizures; conditions: Rat PO; from Antiepileptic Drugs, 5th ed., Levy et al., 2002; cited from earlier work
[3] = system: MES-induced seizures; conditions: Rat PO; from Antiepileptic Drugs, 5th ed., Levy et al., 2002; cited from earlier work
[4] = system: 6 Hz psychomotor seizure; test: Minimal clonic seizure (6 Hz) test; assay type: in vivo; conditions: Mus musculus, ip, Mice IP, 32 mA; read-out: ED50 32 mA (6 Hz test)
Description: Like the maximal electroshock (MES) test, the minimal clonic seizure (6 Hz) test is used to assess a compound's efficacy against electrically-induced seizures but uses a lower frequency (6 Hz) and longer duration of stimulation (3 s). Test compounds are pre-administered to mice via ip injection. […] Untreated mice will display seizures characterized by a minimal clonic phase followed by stereotyped, automatistic behaviors described originally as being similar to the aura of human subjects with partial seizures. Animals not displaying this behavior are considered protected (Table 10).

[5] = Toxicity (TOX), rotorod procedure, mice; assay type: in vivo; conditions: mouse, in vivo; IP route in mice (footnote of Table 10); read-out: TD50
Experimental: The benzodiazepine derivative compounds selective for GABAa receptor subunits were tested for the ability to suppress seizures in several standard rat and mouse models of epilepsy. […] The standard models incorporated into anticonvulsant screening include the maximal electroshock test (MES), the subcutaneous Metrazol test (scMet), and evaluations of toxicity (TOX). The data for each condition is presented as a ratio of either the number of animals protected or toxic (loss of locomotor activity) over the number of animals tested at a given time point and dose.
To assess a compound's undesirable side effects (toxicity), animals are monitored for overt signs of impaired neurological or muscular function. […] When a mouse is placed on a rod that rotates at a speed of 6 rpm, the animal can maintain its equilibrium for long periods of time. The animal is considered toxic if it falls off this rotating rod three times during a 1-min period. In rats, minimal motor deficit is indicated by ataxia, which is manifested by an abnormal, uncoordinated gait. Rats used for evaluating toxicity are examined before the test drug is administered, since individual animals may have peculiarities in gait, equilibrium, placing response, etc., which might be attributed erroneously to the test substance.

[6] = system: Metrazol-induced clonic seizures; conditions: Mice IP; from Antiepileptic Drugs, 5th ed., Levy et al., 2002; cited from earlier work

What does the source list for `NC(=O)N1c2ccccc2C=Cc2ccccc21` [Carbamazepine]?
ED50 MES [1]: 7.81 mg/kg; ED50 scMet [2]: >250 mg/kg; ED50 MES [3]: 5.35 mg/kg; ED50 [4]: > 40 mg/kg; TD50 [5]: 41 mg/kg; ED50 scMet [6]: >50 mg/kg
